The source of these data is patent US11878015B2, “Piperidine-substituted Mnk inhibitors and methods related thereto” (eFFECTOR Therapeutics Inc., priority 2017, dated 2024).

One may read the inhibition as the change of the read-out against control, counted positive when it falls. A lower inhibition goes with a weak effect. The term solubility denotes the concentration that dissolves in the medium under given conditions.

Data set [1] deals with Phosphorylated eIF4E. As to the kind of experiment: peIF4E signaling cellular assay (CisBio peIF4E HTRF). Format: cell-based. As to conditions: 2 hrs incubation at 37° C., 12-point curve 20 μM to 0.1 nM; read-out: pEI4IE signaling activity. As to the method:
Phosphorylated eIF4E is assayed using the CisBio peIF4E HTRF® assay kit (CisBio, catalogue No. 64EF4PEG). Cells are plated in 96-well tissue-culture treated plate in appropriate growth medium (90 μL). Compounds (10×) are diluted using 3-fold serial dilutions in cell culture medium and added to cells. Plates are incubated for 2 hrs at 37° C. The cell supernatant is carefully removed either by aspirating supernatant or by flicking the plate. Immediately 50 μL of supplemented lysis buffer (1×) is added and incubated for at least 30 minutes at room temperature under shaking. After homogenization by pipeting up and down, 16 μL of cell lysate is transferred from the 96-well cell-culture plate to a 384-well small volume white plate. 4 μL of premixed antibody solutions (vol/vol) is prepared in the detection buffer and added. The plate is covered with a plate sealer and incubated overnight at room temperature. The fluorescence emissions at two different wavelengths are read (665 nm and 620 nm) on a Wallac Victor2. Emission ratios are converted into percent inhibitions and imported into GraphPad Prism software. […] IC50 values are determined using a nonlinear regression model available in GraphPad Prism 5.
To this end, IC50 values of less than 0.001 μM are labelled as “+++”, from 0.001 to 0.01 μM are labelled as “++”, and greater than 0.01 μM are labelled as “+” (NA means “not available”).
A general note: Time-resolved FRET reads energy transfer from a long-lived donor to a nearby acceptor.

Data set [2] deals with PD-1. As to the kind of experiment: PD-1 (CD279) expression on PHA/PMA-activated Jurkat T cells, flow cytometry. It is filed as cell-based. Conditions: Homo sapiens, percentage of inhibition of PD-1 positive cells at 10 μM, 48 hours. As to the method:
To examine the effect of MNK inhibitors on PD-1 expression, Jurkat cells (Clone E6.1, ATCC, transformed T cells) were used, which express PD-1 when activated through T cell receptor (TCR) signaling. Briefly, Jurkat cells were grown in 1×RPMI with 1×Pen/Strep, and 10% FBS, then about 3×10^6 Jurkat cells were activated in presence of 1 μg/mL PHA (Sigma) and 50 ng/mL PMA (Sigma). Test Cells were treated simultaneously with various concentrations of an MNK inhibitor (0, 0.01, 0.1, 1, 3 and 10 μM). After 48 hours, culture supernatants were harvested and examined via sandwich ELISA for the presence of IL-2 using human IL-2 ELISA DuoSet (R&D Systems, Minneapolis, Minn.). The level of PD-1 on Jurkat cells was examined by incubating with human FcR block, then contacted with allophycocyanin (APC) conjugated anti-PD-1 antibody (5 μl per 100 μl volume of test, Biolegend, San Diego, CA) for 25 minutes at 4° C., without washing the cells, fixable dead cell stain (1:10,000; BD Biosciences, San Jose, CA) was added and incubated further for 10 minutes at 4° C. Cells were washed two times with flow buffer, and finally cells were fixed with fixation buffer for 15 minutes at 4° C. After fixation, cells were washed twice with flow buffer and re-suspended in flow buffer and assessed for fluorescence using BD Accuri C6 flow cytometer. Data were analyzed using the C6 cytometer software (BD Biosciences, San Jose, CA) or Attune Nxt Cytometer (Invitrogen, Carlsbad, CA).
Activation of Jurkat T cells with PHA and PMA induced the expression of PD-1 on the cell surface of about 25-30% of the stimulated Jurkat cells as compared to uninduced cells (Unstim) and induced a 1,000-fold increase in IL-2 cytokine production, respectively. […] Lastly, MNK inhibition by various different MNK inhibitors had no effect on cell viability. […] To this end, percentage of inhibition of PD-1 positive cells (10 μM) of more than 50% are labelled as “+++”, from 10% to 50% are labelled as “++”, and less than 10% are labelled as “+” (NA means “not available”).

Data set [3] in a line: High throughput thermodynamic solubility procedure. Format: physicochemical. As to conditions: for solubility in fasted state simulated gastric fluid (FaSSGF), in words: pH value of 1.6. As to the method: In a 96-well plate, 10 mM DMSO stocks (50-100 uL) of each compound were dried under heated nitrogen flow using a SPE-96 plate dryer (upper flow rate=50 L/min, temperature=60° C., lower flow rate=20 L/min, temperature=80° C.). […] Compounds prepared as the free base were assessed in conditions with and without one equivalent of TFA added. The theoretical maximum concentrations of the aqueous solutions were 10 mM. Each well was capped and incubated for a period of 18 hours at room temperature or 37° C. Mixing of the solutions during the incubation period was performed by either shaking the plate at 750 rpm or adding StirStix (stainless steel capillaries) and agitating the mixture using a rotary magnetic tumble stirrer. After the incubation period, aliquots from each well were filtered. Solubility of all samples were quantified following comparison to standards of known concentration by HPLC-UV.

The mark [4] stands for this setting: Fasted-State Simulated Intestinal Fluid (FaSSIF), pH 6.5, fassif, thermodynamic from solid, Fasted-State Simulated Intestinal Fluid, 18 hours incubation, theoretical maximum 10 mM, read-out: Aqueous Solubility FaSSIF (pH 6.5).
[5] abbreviates: thermodynamic from solid, deionized water, 18 hours incubation, theoretical maximum 10 mM, read-out: Aqueous Solubility DI H2O.

Each structure is given as a SMILES string. pIC50: −log10 of the molar value. Read-outs that look alike come from different tables or passages of the source. Some results are limits rather than exact numbers.

Regarding `Cc1cc(Nc2ncnc(N)c2C)c(=O)n2c1C(=O)NC21CCCN(C)C1` (racemic) [rac-1F, 6-((6-amino-5-methylpyrimidin-4-yl)amino)-1′,8-dimethyl-2H-spiro[imidazo[1,5-a]pyridine-3,3′-piperidine]-1,5-dione], the pIC50 in data set [1] is 8.00 to 9.00. In data set [2], this compound displayed an inhibition at 10 µM of 10 to 50%. In addition, the “solubility in fasted state simulated gastric fluid (FaSSGF), in words” value (“solubility … in words” for short) in data set [3] is given as “excellent solubility”. In addition, the solubility at 18 h in data set [3] (setting [4]) was 240 µM; in data set [3] (setting [5]) it was 4300 µM.
On to `Cc1cc(Nc2ncnc(N)c2C#N)c(=O)n2c1C(=O)NC21CCCN(C)C1` (racemic) [rac-2F], for which the pIC50 in data set [1] is 8.00 to 9.00. For the same compound, the inhibition at 10 µM in data set [2] was in the range of 10 to 50%. For the same compound, the “solubility … in words” value in data set [3] was “excellent solubility”. Also, in data set [3] (setting [4]), the solubility at 18 h is 79 µg/mL.
As for `Cc1cc(Nc2ncnc(N)c2C#N)c(=O)n2c1C(=O)N[C@]21CCCN(C)C1` (single isomer, unassigned) [Compound 2Fa], the pIC50 in data set [1] was 8.00 to 9.00. In data set [2], this compound displayed an inhibition at 10 µM of 10 to 50%. In addition, the “solubility … in words” value in data set [3] is listed as “excellent solubility”. Further, the solubility at 18 h in data set [3] (setting [4]) is 77 µg/mL; in data set [3] (setting [5]), 1840 µg/mL.
For `Cc1cc(Nc2ncnc(N)c2C#N)c(=O)n2c1C(=O)N[C@@]21CCCN(C)C1` (single isomer, unassigned) [Compound 2Fb] the same measures were less than 8.00, 10 to 50%, “excellent solubility”, 151 µg/mL and 1770 µg/mL.
For `Cc1cc(Nc2ncnc(N)c2C)c(=O)n2c1C(=O)N[C@]21CCCN(C)C1` (stereo in doubt) [Compound 1Fa, (R)-6-((6-amino-5-methylpyrimidin-4-yl)amino)-1′,8-dimethyl-2H-spiro[imidazo[1,5-a]pyridine-3,3′-piperidine]-1,5-dione] the same measures were less than 8.00, 10 to 50%, “excellent solubility”, 125 µg/mL and more than 1850 µg/mL.
In the case of `Cc1cc(Nc2ncnc(N)c2Cl)c(=O)n2c1C(=O)NC21CCN(CCC(F)(F)F)CC1` [Compound 3BB], the pIC50 in data set [1] was more than 9.00. In data set [2], this compound displayed an inhibition at 10 µM of less than 10%.
Turning to `Cc1cc(Nc2ncnc(N)c2C)c(=O)n2c1C(=O)NC21CCCNC1` (centres unmarked) [Compound 3B], in data set [1], the pIC50 is less than 8.00.
Turning to `Cc1cc(Nc2ncnc(N)c2Cl)c(=O)n2c1C(=O)NC21CCCN(C)C1` (centres unmarked) [Compound 3D], the pIC50 in data set [1] was 8.00 to 9.00. Also, in data set [3], the “solubility … in words” value is recorded as “excellent solubility”. Also, the figures for the solubility at 18 h in data set [3] (setting [4]) and in data set [3] (setting [5]) were 110 µM and 3300 µM, respectively.
On to `Cc1cc(Nc2ncnc(N)c2Cl)c(=O)n2c1C(=O)NC21CC(C)N(C)C(C)C1` (centres unmarked) [Compound 3EE], for which the pIC50 in data set [1] was 8.00 to 9.00. This compound returned an inhibition at 10 µM in data set [2] of more than 50%.
With `Cc1cc(Nc2ncnc(N)c2C)c(=O)n2c1C(=O)NC21CCCN(CCC(F)(F)F)C1` (centres unmarked) [Compound 3E], the pIC50 in data set [1] is less than 8.00.
On to `Cc1cc(Nc2ncnc(N)c2Cl)c(=O)n2c1C(=O)NC21CCN(C)C(C)(C)C1` (centres unmarked) [Compound 3FF], for which, in data set [1], the pIC50 was more than 9.00. In data set [2], this compound returned an inhibition at 10 µM of 10 to 50%.
As for `Cc1cc(Nc2ncnc(N)c2Cl)c(=O)n2c1C(=O)NC21CCCN(CCC(F)(F)F)C1` (centres unmarked) [Compound 3F], the pIC50 in data set [1] is 8.00 to 9.00. Besides, the solubility at 18 h in data set [3] (setting [5]) amounted to 240 µM.
With `Cc1cc(Nc2ncnc(N)c2C)c(=O)n2c1C(=O)NC21CCN(CC(C)(C)F)CC1` [Compound 3GG], the pIC50 in data set [1] was 8.00 to 9.00.
Same read-out and setting: with `Cc1cc(Nc2ncnc(N)c2C)c(=O)n2c1C(=O)NC21CCCN(CC(F)F)C1` (centres unmarked) [Compound 3G] the figure was 8.00 to 9.00; with `Cc1cc(Nc2ncnc(N)c2C)c(=O)n2c1C(=O)NC21CCCN(CC2CC2)C1` (centres unmarked) [Compound 3H], less than 8.00; with `Cc1cc(Nc2ncnc(N)c2Cl)c(=O)n2c1C(=O)NC21CCCN(CC(F)F)C1` (centres unmarked) [Compound 3I], more than 9.00.
The same measure, in the same setting: the same measure for `Cc1cc(Nc2ncnc(N)c2Cl)c(=O)n2c1C(=O)NC21CCCN(CC2CC2)C1` (centres unmarked) [Compound 3J]: 8.00 to 9.00; for `CCN1CCCC2(C1)NC(=O)c1c(C)cc(Nc3ncnc(N)c3C)c(=O)n12` (centres unmarked) [Compound 3N]: 8.00 to 9.00; for `Cc1cc(Nc2ncnc(N)c2C)c(=O)n2c1C(=O)NC21CCCN2CCCC21` (centres unmarked) [Compound 3O]: more than 9.00.
Same read-out and setting: with `Cc1cc(Nc2ncnc(N)c2Cl)c(=O)n2c1C(=O)NC21CCCN2CCCC21` (centres unmarked) [Compound 3P] the figure was more than 9.00.
As to `Cc1cc(Nc2ncnc(N)c2C)c(=O)n2c1C(=O)NC21CCCN(C(C)C)C1` (centres unmarked) [Compound 3Q], the pIC50 in data set [1] is 8.00 to 9.00.
As to `Cc1cc(Nc2ncnc(N)c2Cl)c(=O)n2c1C(=O)NC21CCCN(C(C)C)C1` (centres unmarked) [Compound 3R], the pIC50 in data set [1] was more than 9.00. In addition, in data set [3] (setting [4]), the solubility at 18 h was 68 µg/mL.
With `Cc1cc(Nc2ncnc(N)c2C#N)c(=O)n2c1C(=O)NC21CCCNC1` (centres unmarked) [Compound 3U], in data set [1], the pIC50 was less than 8.00.
On to `Cc1cc(Nc2ncnc(N)c2C)c(=O)n2c1C(=O)NC21CCCN(C(C)(C)C)C1` (centres unmarked) [Compound 3V], for which the pIC50 in data set [1] is less than 8.00. Further, the solubility at 18 h in data set [3] (setting [4]) is 107 µg/mL.
As to `Cc1cc(Nc2ncnc(N)c2Cl)c(=O)n2c1C(=O)NC21CCCN(C(C)(C)C)C1` (centres unmarked) [Compound 3W], the pIC50 in data set [1] is 8.00 to 9.00. Also, in data set [3] (setting [4]), the solubility at 18 h was 593 µg/mL.
Turning to `Cc1cc(Nc2ncnc(N)c2Cl)c(=O)n2c1C(=O)N[C@@]21CCCN(C)C1` [Compound 3X], the pIC50 in data set [1] was more than 9.00. In addition, the “solubility … in words” value in data set [3] was “excellent solubility”.
For `Cc1cc(Nc2ncnc(N)c2Cl)c(=O)n2c1C(=O)N[C@]21CCCN(C)C1` [Compound 3Y] the same measures were more than 9.00 and “excellent solubility”.
Regarding `Cc1cc(Nc2ncnc(N)c2Cl)c(=O)n2c1C(=O)NC21CCN(C2CC2)CC1` [Compound 3Z], in data set [1], the pIC50 is 8.00 to 9.00.
The compound `Cc1cc(Nc2ncnc(N)c2Cl)c(=O)n2c1C(=O)NC21CCCCC1.Cl` [Compound 4A, 6′-((6-amino-5-chloropyrimidin-4-yl)amino)-8′-methyl-2′H-spiro[cyclohexane-1,3′-imidazo[1,5-a]pyridine]-1′,5′-dione Hydrochloride, reference compound] returned an inhibition at 10 µM in data set [2] of more than 50%. For the same compound, the solubility at 18 h in data set [3] (setting [4]) was 45 µM. The same compound came in with a solubility in DI water at 18 h in data set [3] (thermodynamic from solid, deionized water, 18 hours incubation, theoretical maximum 10 mM) of 300 µM.
